ChEMBL document CHEMBL5465560, “Selectivity Literature for EUbOPEN Chemogenomic Library” (2024)
One block for each compound: values may come before it.

Legend:
[1] = target: Casein kinase I isoform gamma-3 (Homo sapiens) (UniProt Q9Y6M4); settings: at 10 µM
[2] = target: T1, Membrane-associated tyrosine- and threonine-specific cdc2-inhibitory kinase (Homo sapiens) (UniProt Q99640); assay: Selectivity interaction (Kinase panel (DSF assay)) EUB0001559a PKMYT1
T1 sequence (whole entry): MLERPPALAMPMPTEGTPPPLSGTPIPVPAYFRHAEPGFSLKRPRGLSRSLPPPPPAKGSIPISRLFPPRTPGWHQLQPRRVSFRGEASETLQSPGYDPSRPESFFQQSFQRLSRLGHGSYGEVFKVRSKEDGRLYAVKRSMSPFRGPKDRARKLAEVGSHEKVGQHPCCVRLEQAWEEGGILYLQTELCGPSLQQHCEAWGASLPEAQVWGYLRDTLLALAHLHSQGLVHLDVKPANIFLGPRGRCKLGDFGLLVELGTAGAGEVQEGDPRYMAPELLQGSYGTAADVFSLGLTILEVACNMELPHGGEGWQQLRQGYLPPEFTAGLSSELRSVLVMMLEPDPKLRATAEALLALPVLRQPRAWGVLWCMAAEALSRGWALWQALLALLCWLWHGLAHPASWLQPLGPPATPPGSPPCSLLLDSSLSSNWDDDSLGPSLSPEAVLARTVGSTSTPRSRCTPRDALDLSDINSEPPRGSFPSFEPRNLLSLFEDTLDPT

[3] = target: TGF-beta receptor type-2 (Homo sapiens) (UniProt P37173); assay: Selectivity interaction (KinomeScan (DiscoverX)) EUB0000655a TGFBR2; settings: at 10 µM
[4] = target: Protein-tyrosine kinase 2-beta (Homo sapiens) (UniProt Q14289); assay: Selectivity interaction (KinomeScan (DiscoverX)) EUB0001619a PTK2B; settings: at 1 µM
[5] = target: Mitogen-activated protein kinase 11 (Homo sapiens) (UniProt Q15759); assay: Selectivity interaction (KinomeScan (DiscoverX)) EUB0000595a MAPK11; settings: at 10 µM
[6] = target: Serine/threonine-protein kinase Nek7 (Homo sapiens) (UniProt Q8TDX7); assay: Selectivity interaction (KinomeScan (DiscoverX)) EUB0000595a NEK7; settings: at 10 µM
[7] = target: Receptor tyrosine-protein kinase erbB-2 (Homo sapiens, UniProt P04626); settings: at 10 µM
[8] = target: T2, Serine/threonine-protein kinase TAO3 (Homo sapiens) (UniProt Q9H2K8); assay: Selectivity interaction (ProQinase) EUB0000171b TAOK3
T2 sequence (whole entry): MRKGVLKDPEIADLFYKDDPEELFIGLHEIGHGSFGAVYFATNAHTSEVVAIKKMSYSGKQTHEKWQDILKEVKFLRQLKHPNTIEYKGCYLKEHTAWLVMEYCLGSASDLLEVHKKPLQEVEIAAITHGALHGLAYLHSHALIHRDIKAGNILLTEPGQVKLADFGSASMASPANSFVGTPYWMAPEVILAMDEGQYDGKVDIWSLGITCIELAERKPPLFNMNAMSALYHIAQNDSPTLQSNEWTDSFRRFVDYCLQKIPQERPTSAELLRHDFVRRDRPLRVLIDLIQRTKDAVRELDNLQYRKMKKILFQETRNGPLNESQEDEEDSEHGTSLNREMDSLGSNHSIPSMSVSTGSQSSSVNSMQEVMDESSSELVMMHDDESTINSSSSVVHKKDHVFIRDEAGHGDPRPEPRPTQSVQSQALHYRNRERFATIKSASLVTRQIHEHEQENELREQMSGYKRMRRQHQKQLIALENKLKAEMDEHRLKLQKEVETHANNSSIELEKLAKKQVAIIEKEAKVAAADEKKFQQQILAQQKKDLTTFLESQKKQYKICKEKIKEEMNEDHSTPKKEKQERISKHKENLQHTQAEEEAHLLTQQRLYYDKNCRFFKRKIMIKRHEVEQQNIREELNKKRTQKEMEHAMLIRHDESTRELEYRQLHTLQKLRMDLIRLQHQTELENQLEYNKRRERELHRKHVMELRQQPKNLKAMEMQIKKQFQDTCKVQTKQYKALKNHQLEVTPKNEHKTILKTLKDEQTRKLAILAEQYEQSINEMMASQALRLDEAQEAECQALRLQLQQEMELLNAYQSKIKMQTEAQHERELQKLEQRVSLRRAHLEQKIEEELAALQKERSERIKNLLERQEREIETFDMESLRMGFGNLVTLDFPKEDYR

[9] = target: 5'-AMP-activated protein kinase catalytic subunit alpha-1 (Homo sapiens, UniProt Q13131); assay: Selectivity interaction (KinomeScan (DiscoverX)) EUB0001049a PRKAA1; settings: at 1 µM
[10] = target: T3, Cyclin-dependent kinase 11A (Homo sapiens) (UniProt Q9UQ88); assay: Selectivity interaction (LanthaScreen Eu Kinase Binding Assay) EUB0001632a CDK11A; settings: at 10 µM
T3 sequence (whole entry): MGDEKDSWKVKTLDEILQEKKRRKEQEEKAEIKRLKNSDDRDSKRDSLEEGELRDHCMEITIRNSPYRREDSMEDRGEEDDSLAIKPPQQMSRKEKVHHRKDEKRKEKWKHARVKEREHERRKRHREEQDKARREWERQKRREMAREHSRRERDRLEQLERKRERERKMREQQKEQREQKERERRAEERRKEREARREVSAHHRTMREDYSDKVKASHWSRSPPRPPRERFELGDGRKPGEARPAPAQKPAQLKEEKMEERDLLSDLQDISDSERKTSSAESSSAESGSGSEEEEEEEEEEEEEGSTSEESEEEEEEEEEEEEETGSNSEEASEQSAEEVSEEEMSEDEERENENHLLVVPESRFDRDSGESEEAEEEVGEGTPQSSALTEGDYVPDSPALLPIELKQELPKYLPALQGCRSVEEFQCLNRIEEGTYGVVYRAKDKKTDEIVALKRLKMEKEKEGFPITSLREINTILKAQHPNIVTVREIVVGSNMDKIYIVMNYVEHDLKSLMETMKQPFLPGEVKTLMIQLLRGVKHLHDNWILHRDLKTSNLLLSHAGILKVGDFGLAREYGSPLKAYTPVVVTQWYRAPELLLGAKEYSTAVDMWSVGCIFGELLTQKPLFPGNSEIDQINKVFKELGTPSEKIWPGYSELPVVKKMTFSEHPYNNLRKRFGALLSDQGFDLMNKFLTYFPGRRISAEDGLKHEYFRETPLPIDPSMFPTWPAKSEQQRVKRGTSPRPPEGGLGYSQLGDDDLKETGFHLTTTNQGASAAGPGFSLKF

Sequence of TGF-beta receptor type-2 (Homo sapiens) (P37173 whole entry): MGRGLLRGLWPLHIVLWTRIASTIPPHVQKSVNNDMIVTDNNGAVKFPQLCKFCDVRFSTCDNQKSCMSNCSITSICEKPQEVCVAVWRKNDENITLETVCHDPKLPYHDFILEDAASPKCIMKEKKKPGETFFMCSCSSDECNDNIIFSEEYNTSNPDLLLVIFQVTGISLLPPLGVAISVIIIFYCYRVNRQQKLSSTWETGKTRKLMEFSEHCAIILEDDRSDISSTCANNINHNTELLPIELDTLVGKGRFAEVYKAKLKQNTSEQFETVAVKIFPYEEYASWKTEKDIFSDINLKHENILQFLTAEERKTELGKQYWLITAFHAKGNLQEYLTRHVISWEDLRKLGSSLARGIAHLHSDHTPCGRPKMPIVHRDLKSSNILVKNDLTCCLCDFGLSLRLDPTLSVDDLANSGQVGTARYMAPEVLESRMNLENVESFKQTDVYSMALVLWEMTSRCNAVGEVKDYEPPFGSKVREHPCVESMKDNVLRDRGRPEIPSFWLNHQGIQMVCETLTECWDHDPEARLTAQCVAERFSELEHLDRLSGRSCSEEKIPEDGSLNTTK
Sequence of Mitogen-activated protein kinase 11 (Homo sapiens) (Q15759 whole entry): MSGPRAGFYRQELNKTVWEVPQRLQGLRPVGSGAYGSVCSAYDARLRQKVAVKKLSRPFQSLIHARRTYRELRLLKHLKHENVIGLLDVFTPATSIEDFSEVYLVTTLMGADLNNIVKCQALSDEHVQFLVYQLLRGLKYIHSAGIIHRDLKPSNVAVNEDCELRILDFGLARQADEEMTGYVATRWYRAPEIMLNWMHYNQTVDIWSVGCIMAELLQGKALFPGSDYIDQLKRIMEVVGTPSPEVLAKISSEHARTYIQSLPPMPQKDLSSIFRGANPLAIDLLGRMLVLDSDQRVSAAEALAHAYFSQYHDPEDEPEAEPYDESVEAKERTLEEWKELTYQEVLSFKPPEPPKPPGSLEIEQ
Sequence of Receptor tyrosine-protein kinase erbB-2 (P04626 whole entry): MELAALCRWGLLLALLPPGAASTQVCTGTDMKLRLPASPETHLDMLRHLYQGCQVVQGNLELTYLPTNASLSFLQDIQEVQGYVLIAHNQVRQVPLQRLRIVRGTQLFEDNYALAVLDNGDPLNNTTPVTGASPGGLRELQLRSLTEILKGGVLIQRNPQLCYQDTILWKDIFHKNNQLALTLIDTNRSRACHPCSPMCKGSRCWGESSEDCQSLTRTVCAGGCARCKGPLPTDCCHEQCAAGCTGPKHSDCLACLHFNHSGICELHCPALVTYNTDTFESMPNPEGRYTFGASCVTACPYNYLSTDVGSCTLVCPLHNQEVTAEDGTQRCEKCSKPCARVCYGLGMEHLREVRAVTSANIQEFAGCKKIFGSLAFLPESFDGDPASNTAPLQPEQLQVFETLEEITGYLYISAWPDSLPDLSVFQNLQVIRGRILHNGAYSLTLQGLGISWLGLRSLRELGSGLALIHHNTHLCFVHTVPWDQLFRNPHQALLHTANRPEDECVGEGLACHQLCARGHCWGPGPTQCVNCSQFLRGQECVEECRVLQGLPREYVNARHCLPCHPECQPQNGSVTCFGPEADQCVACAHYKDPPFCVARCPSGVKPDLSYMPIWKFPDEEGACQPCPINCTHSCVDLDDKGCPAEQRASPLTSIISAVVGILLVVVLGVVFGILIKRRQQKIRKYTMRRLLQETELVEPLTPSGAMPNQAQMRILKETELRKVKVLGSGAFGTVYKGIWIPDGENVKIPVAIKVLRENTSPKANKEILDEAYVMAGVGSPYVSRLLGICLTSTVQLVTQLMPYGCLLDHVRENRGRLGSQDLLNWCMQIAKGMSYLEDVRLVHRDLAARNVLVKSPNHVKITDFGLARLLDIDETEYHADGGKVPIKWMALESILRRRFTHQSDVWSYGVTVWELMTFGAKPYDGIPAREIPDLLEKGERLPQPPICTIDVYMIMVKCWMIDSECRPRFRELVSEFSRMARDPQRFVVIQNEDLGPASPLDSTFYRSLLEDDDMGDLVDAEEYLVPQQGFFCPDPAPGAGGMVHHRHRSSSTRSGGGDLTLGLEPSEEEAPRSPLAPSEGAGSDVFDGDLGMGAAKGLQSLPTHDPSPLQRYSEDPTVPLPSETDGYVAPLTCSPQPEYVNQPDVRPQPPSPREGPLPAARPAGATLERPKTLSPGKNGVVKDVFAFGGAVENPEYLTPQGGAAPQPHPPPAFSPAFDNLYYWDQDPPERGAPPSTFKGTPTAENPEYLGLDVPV
Sequence of Protein-tyrosine kinase 2-beta (Homo sapiens) (Q14289 whole entry, looked up): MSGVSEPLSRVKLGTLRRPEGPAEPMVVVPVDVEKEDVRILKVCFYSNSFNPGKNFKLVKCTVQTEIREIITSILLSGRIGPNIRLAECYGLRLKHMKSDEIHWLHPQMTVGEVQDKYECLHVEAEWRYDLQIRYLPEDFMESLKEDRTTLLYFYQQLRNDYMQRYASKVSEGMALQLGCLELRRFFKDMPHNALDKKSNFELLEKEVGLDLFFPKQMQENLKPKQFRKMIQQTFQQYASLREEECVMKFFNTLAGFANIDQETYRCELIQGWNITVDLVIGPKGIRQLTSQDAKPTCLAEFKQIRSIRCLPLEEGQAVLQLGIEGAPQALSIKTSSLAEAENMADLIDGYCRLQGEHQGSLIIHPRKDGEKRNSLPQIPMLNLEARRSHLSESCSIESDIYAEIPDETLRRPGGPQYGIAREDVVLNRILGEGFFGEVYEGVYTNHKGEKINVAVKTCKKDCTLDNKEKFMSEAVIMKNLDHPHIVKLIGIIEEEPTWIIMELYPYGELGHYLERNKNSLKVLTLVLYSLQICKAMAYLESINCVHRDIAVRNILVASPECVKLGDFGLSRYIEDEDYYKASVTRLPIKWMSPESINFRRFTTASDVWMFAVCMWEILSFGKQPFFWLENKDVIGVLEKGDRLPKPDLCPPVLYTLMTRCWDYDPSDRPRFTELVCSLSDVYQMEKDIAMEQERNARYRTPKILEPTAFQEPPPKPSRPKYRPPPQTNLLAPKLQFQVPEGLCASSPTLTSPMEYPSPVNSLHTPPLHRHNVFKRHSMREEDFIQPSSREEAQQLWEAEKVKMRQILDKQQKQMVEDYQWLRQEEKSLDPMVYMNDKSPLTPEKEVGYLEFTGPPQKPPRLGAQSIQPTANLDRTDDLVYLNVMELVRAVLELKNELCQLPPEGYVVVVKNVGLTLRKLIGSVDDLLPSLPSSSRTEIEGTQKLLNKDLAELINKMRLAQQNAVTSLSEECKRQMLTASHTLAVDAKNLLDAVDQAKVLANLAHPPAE
Sequence of Serine/threonine-protein kinase Nek7 (Homo sapiens) (Q8TDX7 whole entry, looked up): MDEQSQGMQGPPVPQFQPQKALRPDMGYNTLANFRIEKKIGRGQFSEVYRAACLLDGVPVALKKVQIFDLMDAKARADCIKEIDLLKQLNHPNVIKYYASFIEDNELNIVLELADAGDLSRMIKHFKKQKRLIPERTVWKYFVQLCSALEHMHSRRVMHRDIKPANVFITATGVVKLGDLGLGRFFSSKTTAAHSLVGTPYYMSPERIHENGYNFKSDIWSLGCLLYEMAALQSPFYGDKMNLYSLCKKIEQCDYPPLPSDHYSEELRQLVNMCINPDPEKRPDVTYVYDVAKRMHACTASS
Sequence of 5'-AMP-activated protein kinase catalytic subunit alpha-1 (Q13131 whole entry, looked up): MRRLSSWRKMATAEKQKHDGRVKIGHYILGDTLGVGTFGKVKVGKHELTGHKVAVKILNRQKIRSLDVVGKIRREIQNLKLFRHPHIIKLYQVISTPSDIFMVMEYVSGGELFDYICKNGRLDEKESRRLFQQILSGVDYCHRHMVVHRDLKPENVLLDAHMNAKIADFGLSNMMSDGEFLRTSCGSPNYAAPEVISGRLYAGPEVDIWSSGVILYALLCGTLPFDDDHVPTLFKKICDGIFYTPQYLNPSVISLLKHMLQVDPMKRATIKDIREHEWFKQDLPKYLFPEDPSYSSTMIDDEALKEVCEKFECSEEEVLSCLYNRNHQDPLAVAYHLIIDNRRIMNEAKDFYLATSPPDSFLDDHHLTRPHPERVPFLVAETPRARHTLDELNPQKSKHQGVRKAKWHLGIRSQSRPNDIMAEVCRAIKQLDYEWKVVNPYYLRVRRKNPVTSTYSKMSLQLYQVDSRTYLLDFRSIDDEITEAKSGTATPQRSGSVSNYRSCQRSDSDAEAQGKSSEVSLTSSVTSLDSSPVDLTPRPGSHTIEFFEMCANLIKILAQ
Sequence of Casein kinase I isoform gamma-3 (Homo sapiens) (Q9Y6M4 whole entry, looked up, canonical isoform): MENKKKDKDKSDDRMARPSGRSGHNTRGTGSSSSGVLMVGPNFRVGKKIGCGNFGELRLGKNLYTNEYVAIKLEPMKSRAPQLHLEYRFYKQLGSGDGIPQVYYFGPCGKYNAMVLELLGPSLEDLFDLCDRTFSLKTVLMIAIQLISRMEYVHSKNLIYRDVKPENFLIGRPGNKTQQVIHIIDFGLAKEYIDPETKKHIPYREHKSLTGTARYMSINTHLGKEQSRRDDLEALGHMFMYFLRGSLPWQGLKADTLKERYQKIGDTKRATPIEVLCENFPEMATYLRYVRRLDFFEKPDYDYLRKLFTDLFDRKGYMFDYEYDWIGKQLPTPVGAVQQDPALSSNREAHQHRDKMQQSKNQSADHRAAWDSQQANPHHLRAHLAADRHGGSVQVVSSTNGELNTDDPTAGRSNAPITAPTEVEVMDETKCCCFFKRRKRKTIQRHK

% of control [1]: 100%
Structure (SMILES): CCN(CC)CCCCNc1ncc2cc(-c3cc(OC)cc(OC)c3)c(NC(=O)NC(C)(C)C)nc2n1

dTM [2]: 0.4 K
Structure (SMILES): CN(C(=O)c1cnn2cccnc12)c1cc2c(cc1N1CCOCC1)C(=O)N(C[C@@H](F)C(C)(C)O)C2

Structure (SMILES): CN(C)CCOc1ccc(-c2nc(-c3ccncc3)c(-c3ccc4c(c3)CC/C4=N\O)[nH]2)cc1
% of control [3]: 44%

Structure (SMILES): N#Cc1cccc(-c2c[nH]c3ncnc(N4CCOCC4)c23)c1
% of control [4]: 100%

Structure (SMILES): COCC(=O)NC/C=C/c1ccc2ncnc(Nc3ccc(Oc4ccc(C)nc4)c(C)c3)c2c1 [CP-724714]
% of control [5]: 100% | % of control [6]: 73%

Structure (SMILES): Cc1cc([C@@H](C)Nc2ccccc2C(=O)O)c2nc(N3CCOCC3)cc(=O)n2c1 [AZD-6482]
% of control [7]: 100%

% of control ([8]; at 1 µM): 95% | % of control ([8]; at 5 µM): 72%
Structure (SMILES): C=CC(=O)Nc1cccc(C(=O)Nc2ccc(Nc3cc(-c4[nH]c(SC)nc4C)ccn3)cc2)c1

Structure (SMILES): COc1cc(Nc2nc(C)cc(-c3cnn4nc(OC)ccc34)n2)cc(C(F)(F)F)c1
% of control [9]: 87%

% of inhibition [10]: -1.94%
Structure (SMILES): Cn1cc(-n2cnc3c(NCc4nc5cc(Cl)c(Cl)cc5[nH]4)nc(N4CCOCC4)nc32)cn1
